Data reported in patent US7572606B1 (Nereus Pharmaceuticals, Inc., priority 2005, dated 2009).
Where two headings read alike, the source gives them in different places.

Legend:
BT-459 = assay: NCI 60 cell line screen, sulforhodamine B, 48 h; type: cell-based, human
Experimental: (§1) A detailed description of the screening procedure can be found at hypertext transfer protocol (http://) “dtp.nci.nih.gov/branches/btb/ivclsp.html.”
(§2) In brief, each of the 60 human tumor cell lines were grown in RPMI 1640 medium, supplemented with 5% fetal bovine serum and 2 mM L-glutamine. Cells were plated at their appropriate density in 96-well microtiter plates and incubated at 37° C., 5% CO2, 95% air and 100% relative humidity. […] Cells were incubated for an additional 48 hours and a sulforhodamine B protein assay was used to estimate cell viability or growth.

DU-145 = assay: NCI 60 cell line screen, sulforhodamine B, 48 h; type: cell-based, human
Experimental: as §1, §2

MALME-3M = assay: NCI 60 cell line screen, sulforhodamine B, 48 h; type: cell-based, human; conditions: Melanoma
Experimental: as §1, §2

MDA-MB-231/ATCC = assay: NCI 60 cell line screen, sulforhodamine B, 48 h; type: cell-based, human; conditions: Breast Cancer
Experimental: as §1, §2

MDA-N = assay: NCI 60 cell line screen, sulforhodamine B, 48 h; type: cell-based, human; conditions: Breast Cancer
Experimental: as §1, §2

NCI-H236 = assay: NCI 60 cell line screen, sulforhodamine B, 48 h; type: cell-based, human; conditions: NCI-H236, Non-Small Cell Lung Cancer
Experimental: as §1, §2

NCI-H460 = assay: NCI 60 cell line screen, sulforhodamine B, 48 h; type: cell-based, human; conditions: NCI-H460, Non-Small Cell Lung Cancer
Experimental: as §1, §2

OVCAR-4 = assay: NCI 60 cell line screen, sulforhodamine B, 48 h; type: cell-based, human; conditions: OVCAR-4, Ovarian Cancer
Experimental: as §1, §2

SF-539 = assay: NCI 60 cell line screen, sulforhodamine B, 48 h; type: cell-based, human; conditions: SF-539, CNS Cancer
Experimental: as §1, §2

UACC-257 = assay: NCI 60 cell line screen, sulforhodamine B, 48 h; type: cell-based, human
Experimental: as §1, §2

DU 145 = assay: Cell growth inhibition, resazurin, 48 h; type: cell-based, human
[1] = tested on: PARP and Pro-Caspase 3 in PC-3 cells; assay: PARP and Pro-Caspase 3 cleavage, western blot; type: cell-based, human; conditions: 100 nM for 0, 8 or 24 hours
Experimental: Total protein lysates were made and 20 μg of the lysates were then resolved under reducing/denaturing conditions and blotted onto nitrocellulose. The blots were then probed with anti-PARP or anti-caspase 3 antibodies followed by stripping and reprobing with an anti-actin antibody.

[2] = tested on: chymotrypsin-like proteasome activity in packed whole blood lysate; assay: Whole blood proteasome activity after dosing (PWBL assay); type: in vivo, male Swiss-Webster mice; conditions: mice
Experimental: In brief, frozen whole blood samples were thawed on ice for one hour, and resuspended in 700 μL of ice cold 5 mM EDTA, pH 8.0 in order to lyse the cells by hypotonic shock. This represents approximately 2-3 times the volume of the packed whole blood cells. Lysis was allowed to proceed for one hour, and the cellular debris was removed by centrifugation at 14,000×g for 10 minutes. The supernatant (Packed Whole Blood Lysate, PWBL) was transferred to a fresh tube, and the pellet discarded. Protein concentration of the PWBL was determined by BCA assay (Pierce) using BSA as a standard.
Proteasome activity was determined by measuring the hydrolysis of a fluorogenic substrate specific for the chymotrypsin-like activity of proteasomes (suc-LLVY-AMC, Bachem Cat. I-1395). […] The rate of hydrolysis in this system is linear for at least one hour. The hydrolysis rate of each sample is then normalized to relative fluorescent units per milligram of protein (RFU/mg).
The vehicle control consisted of 2% DMSO in 10% solutol. […] Packed whole blood cells were collected by centrifugation, washed with PBS, and re-centrifuged. All samples were stored at −80° C. prior to the evaluation of the proteasome activity.
Male Swiss Webster mice (12/group weighing 20-25 g) were injected with LPS (2 mg/kg) by the i.p. route. […]

LPS-induced plasma TNF = assay: Inhibition of in vivo LPS-induced TNF; set-up: species or system male Swiss Webster mice; conditions: 0.125 or […] i.v., 30 minutes post-LPS (2 mg/kg i.p.)
Experimental: The following methods outline the protocol design for these studies.
Male Swiss Webster mice (12/group weighing 20-25 g) were injected with LPS (2 mg/kg) by the i.p. route. […] Ninety minutes after LPS injection, the mice were anesthetized with Isoflurane and bled by cardiac puncture to obtain plasma. Remaining blood pellet was then resuspended in 500 μL of PBS to wash away residual serum proteins and centrifuged again. Supernatant was removed and blood pellet frozen for analysis of proteasome inhibition in packed whole blood lysate.
Animals were dosed i.v. with 4 ml/kg. A vehicle control solution was also prepared by making the same 1:160 dilution with 100% DMSO into 10% solutol solution giving a final concentration of 9.375% solutol in water and 0.625% DMSO. Measurements of plasma TNF were performed using the Biosource mTNF Cytoset kit (Biosource Intl., Camarillo, Calif.; catalog # CMC3014) according to manufacturer's instructions. Samples were diluted 1:60 for the assay.

HL-60(TB) = conditions: Leukemia
[3] = molecular target: caspase-like (PGPH) activity of rabbit muscle 20S proteasome (Oryctolagus cuniculus, UniProt A0A5F9DQW2); assay: In vitro inhibition of 20S proteasome, Z-LLE-AMC; conditions: read-out: EC50 Caspase-like (PGPH); purified rabbit 20S proteasome, Z-LLE-AMC
[4] = molecular target: T1, chymotrypsin-like activity of rabbit muscle 20S proteasome (Oryctolagus cuniculus, UniProt G1T4Q9); assay: In vitro inhibition of 20S proteasome, suc-LLVY-AMC
T1 sequence (G1T4Q9 1-263): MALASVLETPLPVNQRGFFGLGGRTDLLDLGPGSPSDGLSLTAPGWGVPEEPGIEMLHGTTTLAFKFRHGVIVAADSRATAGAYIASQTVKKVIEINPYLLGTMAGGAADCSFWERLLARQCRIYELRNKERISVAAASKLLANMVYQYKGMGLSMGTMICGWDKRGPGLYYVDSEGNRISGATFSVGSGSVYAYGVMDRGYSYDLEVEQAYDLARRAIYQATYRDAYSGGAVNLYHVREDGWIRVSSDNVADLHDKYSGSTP

Sequence of caspase-like (PGPH) activity of rabbit muscle 20S proteasome (A0A5F9DQW2 1-212): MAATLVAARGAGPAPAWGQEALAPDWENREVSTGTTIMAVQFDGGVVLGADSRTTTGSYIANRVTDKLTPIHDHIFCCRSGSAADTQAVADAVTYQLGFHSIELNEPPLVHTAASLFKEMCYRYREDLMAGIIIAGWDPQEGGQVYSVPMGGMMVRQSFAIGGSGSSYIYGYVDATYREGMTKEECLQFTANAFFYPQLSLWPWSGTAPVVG

Which “Log10 G150” value (BT-459; BT-459, Breast Cancer) does the source give for C[C@@]12OC(=O)[C@]1([C@@H](O)[C@@H]1C=CCCC1)NC(=O)[C@@H]2CCCl [Formula II-16, Salinosporamide A] here?
Its value is under -8.00 Molar.

And the “Log10 TGI” value (BT-459; BT-459, Breast Cancer)?
The value was under -8.00 Molar.

What about the CC50 (BT-459; Homo sapiens, 60 cell, read-out: Log10 LC50 (converted)) of the same compound?
The CC50 was 60.3 nM.

What about the “Log10 G150” value (DU-145; DU-145, Prostate Cancer) of the same compound?
Its value is under -8.00 Molar.

What about the “Log10 TGI” value (DU-145; DU-145, Prostate Cancer) of the same compound?
Its value is over -4.00 Molar.

And the CC50 (DU-145; Homo sapiens, DU-145, read-out: Log10 LC50 (converted))?
Its CC50 is over 100000 nM.

And the “Log10 G150” value (MALME-3M)?
The value was under -8.00 Molar.

And the “Log10 TGI” value (MALME-3M)?
The value was under -8.00 Molar.

And the “Log10 G150” value (MDA-MB-231/ATCC)?
The value was under -8.00 Molar.

And the “Log10 TGI” value (MDA-MB-231/ATCC)?
Its value is under -8.00 Molar.

What about the “Log10 G150” value (MDA-N) of the same compound?
The value was under -8.00 Molar.

And the “Log10 TGI” value (MDA-N)?
The value was under -8.00 Molar.

And the “Log10 G150” value (NCI-H236)?
Its value is under -8.00 Molar.

And the “Log10 TGI” value (NCI-H236)?
Its value is under -8.00 Molar.

And the “Log10 G150” value (NCI-H460)?
Its value is under -8.00 Molar.

And the “Log10 TGI” value (NCI-H460)?
The value was -6.97 Molar.

And the “Log10 G150” value (OVCAR-4)?
Its value is under -8.00 Molar.

What about the “Log10 TGI” value (OVCAR-4) of the same compound?
Its value is under -8.00 Molar.

And the “Log10 G150” value (SF-539)?
Its value is under -8.00 Molar.

And the “Log10 TGI” value (SF-539)?
The value was under -8.00 Molar.

And the CC50 (UACC-257; Homo sapiens, UACC-257, read-out: Log10 LC50 (converted))?
The CC50 was 427 nM.

And the “Log10 G150” value (UACC-257; UACC-257, Melanoma)?
Its value is under -8.00 Molar.

And the “Log10 TGI” value (UACC-257; UACC-257, Melanoma)?
The value was under -8.00 Molar.

What about the “% cytotoxicity” value (DU 145; DU 145) of the same compound?
The value was 75 ± 4%.

What about the EC50 (DU 145; Homo sapiens, DU 145, 48 h drug exposure) of the same compound?
The EC50 was 37 ± 10 nM.

And the “cleavage of PARP and Pro-Caspase 3” value [1]?
The value was “cleavage of PARP is noticeable at 24 hours”.

What about the “proteasomal activity in PWBL” value ([2]; i.v. or oral, blood 90 min after administration) of the same compound?
Its value is “profound decrease in proteasomal activity in PWBL”.

What about the “activity upon oral administration (PWBL proteasome)” value ([2]; oral) of the same compound?
Its value is “active upon oral administration”.

And the “reduction of LPS-induced plasma TNF levels” value (LPS-induced plasma TNF)?
The value was “approximately 65%”.

What about the “Log10 G150” value (HL-60(TB)) of the same compound?
Its value is under -8.00 Molar.

And the “Log10 TGI” value (HL-60(TB))?
The value was -4.32 Molar.

How did the EC50 [3] turn out when C[C@H]1C(=O)N[C@@]2([C@@H](O)[C@@H]3C=CCCC3)C(=O)O[C@@]12C [Formula II-20] was run?
Its EC50 is 1420 nM.

And the EC50 [4]?
Its EC50 is 2 to 11 nM.

And the EC50 ([4]; read-out: EC50 Chymotrypsin-like, purified rabbit 20S proteasome, suc-LLVY-AMC)?
The EC50 was 7.7 ± 3 nM.
